Laboratory results from patent US7208511B2, “Microbicidal composition” (Rohm and Haas Company, priority 2003, dated 2007).
Each block holds one compound with its values, some of them ahead of it.

Assays:
Mixed Bacteria [1] = experiment: Speed of Kill test in TSB; assay type: cell-based; conditions: for Minimum Effective Concentration ALONE: 5-log reduction criteria, no end point measured, value is 2× the highest level tested (Lazonby)
Source text: (§1) One measure of synergism is the industrially accepted method described by Kull, F. C.; Eisman, P. C.; Sylwestrowicz, H. D. and Mayer, R. L., in Applied Microbiology 9:538–541 (1961), using the ratio determined by the formula: Qa/QA+Qb/QB=Synergy Index (“SI”) wherein: • QA=concentration of compound A (first component) in ppm, acting alone, which produced an end point (MIC of Compound A). • Qa=concentration of compound A in ppm, in the mixture, which produced an end point. • QB=concentration of compound B (second component) in ppm, acting alone, which produced an end point (MIC of Compound B). • Qb=concentration of compound B in ppm, in the mixture, which produced an end point.
(§2) When the sum of Qa/QA and Qb/QB is greater than one, antagonism is indicated. […] The lower the SI, the greater the synergy shown by that particular mixture. The minimum inhibitory concentration (MIC) of a microbicide is the lowest concentration tested under a specific set of conditions that prevents the growth of added microorganisms.
To evaluate “Speed of Kill” an aliquot of 30 g of pH 8 TSB was dispensed in sterile 2 oz (60 mL) jars. Biocides stock solution was added into each jar to achieve the final concentration. The test samples were inoculated with 0.3 ml of mixed bacterial inoculum (resulting in 10^6/ml bacteria per ml of test solution). Samples were then placed in a shaker water bath at 30° C. Bacterial growth was monitored via the microtiter MPN method using the BECKMAN AUTOMATIC 2000 Workstation after 30 min, 1, 4, 24, 48, 72 hours and again 6–7 days contact time. The microtiter plates were incubated at 30° C. for 2 days.
(§3) In each test, First Component (A) was MI and the Second Component (B) was DBNPA. “NG” means that no growth was observed.

Mixed Bacteria [2] = experiment: Minimum Inhibitory Concentration (MIC) synergy test, microtiter plate; assay type: cell-based; conditions: after 24 hours at 30° C.
Source text: as §1, §2
Synergy tests were conducted using standard microtiter plate assays with media designed for optimal growth of the test microorganism. […] High resolution MICs were determined by adding varying amounts of microbicide to one column of a microtitre plate and doing subsequent ten-fold dilutions using an automated liquid handling system to obtain a series of endpoints ranging from 2 ppm to 10,000 ppm active ingredient. The combinations of the present invention were tested against three bacteria, Pseudomonas aeruginosa (P. aeruginosa —ATCC #15442), Enterobacter aerogenes (ATCC #13048), and Kiebsiella pneumoniae (ATCC #13883). The bacteria were used at a concentration of about 10^8 bacteria per mL. These microorganisms are representative of natural contaminants in many consumer and industrial applications. The plates were visually evaluated for microbial growth (turbidity) to determine the MIC after various incubation times at 30° C.
as §3

MIC Values ALONE (Mixed Bacteria [2]; 1/10 TSB): 45 ppm AI | MIC Values ALONE (Mixed Bacteria [2]; M9G + 0.1% yeast extract): 45 ppm AI
Compound: N#CC(Br)(Br)C(N)=O [DBNPA, 2,2-dibromo-3-nitrilopropionamide]
Minimum Effective Concentration ALONE (Mixed Bacteria [1]; 24 hr): 46 ppm AI | Minimum Effective Concentration ALONE (Mixed Bacteria [1]; 48 hr): 46 ppm AI | Minimum Effective Concentration ALONE (Mixed Bacteria [1]; 72 hr): 46 ppm AI | CFU/ml Bacteria Log Reduction vs Control (Mixed Bacteria [1]; DBNPA 1 ppm AI alone, 30 min @ 30° C.): 0.6 log | CFU/ml Bacteria Log Reduction vs Control (Mixed Bacteria [1]; DBNPA 1 ppm AI alone, 1 hr @ 30° C.): −0.6 log | CFU/ml Bacteria Log Reduction vs Control (Mixed Bacteria [1]; DBNPA 1 ppm AI alone, 4 hr @ 30° C.): −1.0 log | CFU/ml Bacteria Log Reduction vs Control (Mixed Bacteria [1]; DBNPA 1 ppm AI alone, 24 hr @ 30° C.): −2.6 log | CFU/ml Bacteria Log Reduction vs Control (Mixed Bacteria [1]; DBNPA 2 ppm AI alone, 30 min @ 30° C.): −0.1 log | CFU/ml Bacteria Log Reduction vs Control (Mixed Bacteria [1]; DBNPA 2 ppm AI alone, 1 hr @ 30° C.): −0.3 log | CFU/ml Bacteria Log Reduction vs Control (Mixed Bacteria [1]; DBNPA 2 ppm AI alone, 4 hr @ 30° C.): −0.8 log | CFU/ml Bacteria Log Reduction vs Control (Mixed Bacteria [1]; DBNPA 2 ppm AI alone, 24 hr @ 30° C.): −1.4 log | CFU/ml Bacteria Log Reduction vs Control (Mixed Bacteria [1]; DBNPA 5 ppm AI alone, 30 min @ 30° C.): 0.4 log | CFU/ml Bacteria Log Reduction vs Control (Mixed Bacteria [1]; DBNPA 5 ppm AI alone, 1 hr @ 30° C.): −0.3 log | CFU/ml Bacteria Log Reduction vs Control (Mixed Bacteria [1]; DBNPA 5 ppm AI alone, 4 hr @ 30° C.): −0.8 log | CFU/ml Bacteria Log Reduction vs Control (Mixed Bacteria [1]; DBNPA 5 ppm AI alone, 24 hr @ 30° C.): −1.6 log | CFU/ml Bacteria Log Reduction vs Control (Mixed Bacteria [1]; DBNPA 9 ppm AI alone, 30 min @ 30° C.): 0.4 log | CFU/ml Bacteria Log Reduction vs Control (Mixed Bacteria [1]; DBNPA 9 ppm AI alone, 1 hr @ 30° C.): 0.0 log | CFU/ml Bacteria Log Reduction vs Control (Mixed Bacteria [1]; DBNPA 9 ppm AI alone, 4 hr @ 30° C.): −1.0 log | CFU/ml Bacteria Log Reduction vs Control (Mixed Bacteria [1]; DBNPA 9 ppm AI alone, 24 hr @ 30° C.): −2.0 log | CFU/ml Bacteria Log Reduction vs Control (Mixed Bacteria [1]; DBNPA 23 ppm AI alone, 30 min @ 30° C.): 0.4 log | CFU/ml Bacteria Log Reduction vs Control (Mixed Bacteria [1]; DBNPA 23 ppm AI alone, 1 hr @ 30° C.): 0.2 log | CFU/ml Bacteria Log Reduction vs Control (Mixed Bacteria [1]; DBNPA 23 ppm AI alone, 4 hr @ 30° C.): −1.0 log | CFU/ml Bacteria Log Reduction vs Control (Mixed Bacteria [1]; DBNPA 23 ppm AI alone, 24 hr @ 30° C.): −1.4 log

Compound: Cn1sccc1=O [MI, 2-methyl-4-isothiazolin-3-one]
Minimum Effective Concentration ALONE (Mixed Bacteria [1]; 24 hr): 300 ppm AI | Minimum Effective Concentration ALONE (Mixed Bacteria [1]; 48 hr): 300 ppm AI | Minimum Effective Concentration ALONE (Mixed Bacteria [1]; 72 hr): 300 ppm AI | CFU/ml Bacteria Log Reduction vs Control (Mixed Bacteria [1]; MI 25 ppm AI alone, 30 min @ 30° C.): −0.3 log | CFU/ml Bacteria Log Reduction vs Control (Mixed Bacteria [1]; MI 25 ppm AI alone, 1 hr @ 30° C.): 0.0 log | CFU/ml Bacteria Log Reduction vs Control (Mixed Bacteria [1]; MI 25 ppm AI alone, 4 hr @ 30° C.): 0.2 log | CFU/ml Bacteria Log Reduction vs Control (Mixed Bacteria [1]; MI 25 ppm AI alone, 24 hr @ 30° C.): −1.3 log | CFU/ml Bacteria Log Reduction vs Control (Mixed Bacteria [1]; MI 25 ppm AI alone, 48 hr @ 30° C.): −2.0 log | CFU/ml Bacteria Log Reduction vs Control (Mixed Bacteria [1]; MI 50 ppm AI alone, 30 min @ 30° C.): 0.4 log | CFU/ml Bacteria Log Reduction vs Control (Mixed Bacteria [1]; MI 50 ppm AI alone, 1 hr @ 30° C.): 0.2 log | CFU/ml Bacteria Log Reduction vs Control (Mixed Bacteria [1]; MI 50 ppm AI alone, 4 hr @ 30° C.): 0.4 log | CFU/ml Bacteria Log Reduction vs Control (Mixed Bacteria [1]; MI 50 ppm AI alone, 24 hr @ 30° C.): −0.6 log | CFU/ml Bacteria Log Reduction vs Control (Mixed Bacteria [1]; MI 50 ppm AI alone, 48 hr @ 30° C.): −1.6 log | CFU/ml Bacteria Log Reduction vs Control (Mixed Bacteria [1]; MI 75 ppm AI alone, 30 min @ 30° C.): 0.2 log | CFU/ml Bacteria Log Reduction vs Control (Mixed Bacteria [1]; MI 75 ppm AI alone, 1 hr @ 30° C.): 0.2 log | CFU/ml Bacteria Log Reduction vs Control (Mixed Bacteria [1]; MI 75 ppm AI alone, 4 hr @ 30° C.): −0.3 log | CFU/ml Bacteria Log Reduction vs Control (Mixed Bacteria [1]; MI 75 ppm AI alone, 24 hr @ 30° C.): 0.2 log | CFU/ml Bacteria Log Reduction vs Control (Mixed Bacteria [1]; MI 75 ppm AI alone, 48 hr @ 30° C.): −2.0 log | CFU/ml Bacteria Log Reduction vs Control (Mixed Bacteria [1]; MI 100 ppm AI alone, 168 @ 30° C.): −2.8 log | CFU/ml Bacteria Log Reduction vs Control (Mixed Bacteria [1]; MI 100 ppm AI alone, 30 min @ 30° C.): 0.4 log | CFU/ml Bacteria Log Reduction vs Control (Mixed Bacteria [1]; MI 100 ppm AI alone, 1 hr @ 30° C.): 0.6 log | CFU/ml Bacteria Log Reduction vs Control (Mixed Bacteria [1]; MI 100 ppm AI alone, 4 hr @ 30° C.): 0.2 log | CFU/ml Bacteria Log Reduction vs Control (Mixed Bacteria [1]; MI 100 ppm AI alone, 24 hr @ 30° C.): 0.8 log | CFU/ml Bacteria Log Reduction vs Control (Mixed Bacteria [1]; MI 100 ppm AI alone, 48 hr @ 30° C.): 1.7 log | CFU/ml Bacteria Log Reduction vs Control (Mixed Bacteria [1]; MI 100 ppm AI alone, 72 hr @ 30° C.): 0.0 log | CFU/ml Bacteria Log Reduction vs Control (Mixed Bacteria [1]; MI 150 ppm AI alone, 168 @ 30° C.): −2.0 log | CFU/ml Bacteria Log Reduction vs Control (Mixed Bacteria [1]; MI 150 ppm AI alone, 30 min @ 30° C.): 0.6 log | CFU/ml Bacteria Log Reduction vs Control (Mixed Bacteria [1]; MI 150 ppm AI alone, 1 hr @ 30° C.): 0.2 log | CFU/ml Bacteria Log Reduction vs Control (Mixed Bacteria [1]; MI 150 ppm AI alone, 4 hr @ 30° C.): 0.0 log | CFU/ml Bacteria Log Reduction vs Control (Mixed Bacteria [1]; MI 150 ppm AI alone, 24 hr @ 30° C.): −0.2 log | CFU/ml Bacteria Log Reduction vs Control (Mixed Bacteria [1]; MI 150 ppm AI alone, 48 hr @ 30° C.): 1.7 log | CFU/ml Bacteria Log Reduction vs Control (Mixed Bacteria [1]; MI 150 ppm AI alone, 72 hr @ 30° C.): 0.4 log | MIC Values ALONE (Mixed Bacteria [2]; 1/10 TSB): 38 ppm AI | MIC Values ALONE (Mixed Bacteria [2]; M9G + 0.1% yeast extract): 38 ppm AI
